Values joined by “and” are separate entries in the source; they are usually repeats but may differ in a detail not shown here. Equal values may be shown once.
What was measured:
E. faecalis ATCC 7080 = test: Broth microdilution assay (OD 600 nm); format: cell-based, Enterococcus faecalis
Experimental: (§1) Serrawettin W2-FL10 (95% pure) was tested for antibacterial activity using a broth microdilution susceptibility assay ([6]), with melittin included as an antibiotic control. The serrawettin W2-FL10 was prepared in 70% MeCN to 1.00 mg/mL, from which aliquots were prepared using 70% MeCN to a concentration of 50 µg/mL or 500 µg/mL, while aliquots of melittin were prepared using analytical quality H2O to 128 µg/mL. Fifty microliters of the respective W2-FL10 aliquots or melittin were dispensed into a clear 96-well plate and a microdilution (in 70% MeCN for W2-FL10 or analytical quality H2O for melittin) was performed within the plate. The plate was air-dried to remove the solvent and placed in a desiccator with chloroform for 20 min for sterilization.
(§2) All the cultures (inoculated into 5 mL MHB, or 5 mL TSB for Listeria and Enterococcus strains) were incubated at 37°C to reach an optical density (OD) of 0.4 at 600 nm (∼10^7 CFU/mL). A 1:20 dilution of the test strain (final concentration of ∼10^5 CFU/mL) was prepared and 100 µL was dispensed into each well (final concentration of W2-FL10 at 1.5–125 µg/mL and melittin at 2–32 µg/mL). Sterile broth and the OD-adjusted inoculum were included as positive controls, while sterile broth (no inoculum) was included as a negative control. The 96-well plate was incubated for 18 h at 37°C. All the tests were performed in triplicate, with independent duplicates. Following incubation, the absorbance was measured using a microtiter plate reader at 600 nm. The 50% growth inhibition concentration (IC50) was determined using GraphPad Prism version 5 for Windows [GraphPad Software, San Diego, USA (www.graphpad.com)]. A sigmodal curve with variable slope was fitted to each set of dose-repose data according to Rautenbach et al. ([17]) using equation (1):
(§3) (1) Y=bottom+(top−bottom)/1+10^logIC50×Activity slope
(§4) The “top” and “bottom” are the maximum and minimum inhibition responses, respectively, for a particular set of dose-response data, while the activity slope is related to the Hill slope of a sigmoidal binding curve ([16]). […] The MIC value was determined for each set of dose-response data as the lowest concentration, resulting in ≥90% inhibition of the target cell growth. In addition to the MIC and IC50 inhibition parameters, an inhibition concentration factor (ICF), was calculated as outlined in Rautenbach et al. ([17]). The ICF is indicative of the concentration increase from the highest concentration where no activity is observed to the MIC of a compound.

E. faecalis S1 = test: Broth microdilution assay (OD 600 nm); format: cell-based, Enterococcus faecalis
Experimental: as §1, §2, §3, §4

MRSA Xen 30 = test: Membrane permeability assay, propidium iodide; format: cell-based, Staphylococcus aureus; settings: 25 µg/mL
Experimental: (§5) The membrane permeability capabilities of the W2-FL10 against the S. aureus strains were determined using PI ([56]). Briefly, black 96-well plates were prepared with W2-FL10 at 6.25, 12.5, and 25 µg/mL, while 4–16 µg/mL of melittin was used as a positive permeability control, and the plates were dried as described in the “Antibacterial activity: broth microdilution assay” section. The S. aureus strains were inoculated into MHB, grown to mid-log phase (OD600 of 0.5–0.6), and diluted to OD600 of 0.3. PI (stock concentration of 1 mg/mL in analytical quality H2O) was added to the cell suspension to a final concentration of 10 µg/mL and cells were incubated in the dark at room temperature for 20 min. Thereafter, 100 µL of OD-adjusted PI cells in the mid-log phase were dispensed into each well. Sterile broth and the OD-adjusted inoculum with PI were included as a non-fluorescent control, while sterile broth with PI was included as a sterility control, and melittin was included as membrane depolarization control. All the tests were performed in triplicate, with independent duplicates. Fluorometric readings of the plate were conducted in 4-min intervals over 60 min (readings began ~60 s after cells were added to the plate) using a Tecan Spark at 535 nm excitation wavelength and 617 nm emission wavelength.
(§6) The leakage kinetics or PI permeabilization kinetic was assessed using a rate parameter of ΔPI fluorescence per minute. This was done by fitting linear regression lines on the linear sections, namely 6–16 min for melittin and 6–18 min, as well as 34–50 min for W2-FL10. The rates of PI permeabilization were compared between the three S. aureus strains using a one-way ANOVA with Bonferroni’s post hoc test.

S. aureus ATCC 25923 = test: Membrane permeability assay, propidium iodide; format: cell-based, Staphylococcus aureus; settings: 25 µg/mL
Experimental: as §5, §6

S. aureus RN4220 = test: Membrane permeability assay, propidium iodide; format: cell-based, Staphylococcus aureus; settings: 25 µg/mL
Experimental: as §5, §6

three S. aureus strains = test: Membrane permeability assay, propidium iodide, summary; format: cell-based, Staphylococcus aureus; settings: discussion
Experimental: The membrane permeability capabilities of the W2-FL10 against the S. aureus strains were determined using PI ([56]). Briefly, black 96-well plates were prepared with W2-FL10 at 6.25, 12.5, and 25 µg/mL, while 4–16 µg/mL of melittin was used as a positive permeability control, and the plates were dried as described in the “Antibacterial activity: broth microdilution assay” section. The S. aureus strains were inoculated into MHB, grown to mid-log phase (OD600 of 0.5–0.6), and diluted to OD600 of 0.3. PI (stock concentration of 1 mg/mL in analytical quality H2O) was added to the cell suspension to a final concentration of 10 µg/mL and cells were incubated in the dark at room temperature for 20 min. Thereafter, 100 µL of OD-adjusted PI cells in the mid-log phase were dispensed into each well. Sterile broth and the OD-adjusted inoculum with PI were included as a non-fluorescent control, while sterile broth with PI was included as a sterility control, and melittin was included as membrane depolarization control. […] Fluorometric readings of the plate were conducted in 4-min intervals over 60 min (readings began ~60 s after cells were added to the plate) using a Tecan Spark at 535 nm excitation wavelength and 617 nm emission wavelength.
The leakage kinetics or PI permeabilization kinetic was assessed using a rate parameter of ΔPI fluorescence per minute. […]

[1] = 50% growth inhibition, sigmoidal curve fit, n = 3
[2] = ≥90% growth inhibition, OD 600 nm, TSB, 18 h 37°C

**Q.** For CCCCCCCC1CC(=O)N[C@H](CC(C)C)C(=O)N[C@@H](CO)C(=O)N[C@@H]([C@@H](C)O)C(=O)N[C@H](Cc2ccccc2)C(=O)N[C@@H](CC(C)C)C(=O)O1 (some centres unmarked) [W2-FL10, serrawettin W2-FL10], which “IC50 ± SD” value (E. faecalis ATCC 7080; [1]) is on record?
**A.** 3.2 ± 0.3 (3) µg/mL

**Q.** And the Selectivity index (E. faecalis ATCC 7080; LC50 (CHO)/IC50)?
**A.** 9.1

**Q.** And the MIC (E. faecalis ATCC 7080; [2])?
**A.** 6.3 μg/mL and 6.3 (8.5) μg/mL

**Q.** And the “IC50 ± SD” value (E. faecalis S1; [1])?
**A.** 5.2 ± 0.5 (3) µg/mL

**Q.** And the Selectivity index (E. faecalis S1; LC50 (CHO)/IC50)?
**A.** 5.6

**Q.** And the “ICF (MIC/IC50)^2” value (E. faecalis S1; inhibition concentration factor)?
**A.** 5.4

**Q.** And the MIC (E. faecalis S1; [2])?
**A.** 12.5 μg/mL and 12.5 (17.1) μg/mL

**Q.** What about the “time within which ≥90% uptake in PI fluorescence was observed” value (from here on “time within which ≥90% uptake”) (MRSA Xen 30) of the same compound?
**A.** ≤ 3,240 s

**Q.** And the “time within which ≥90% uptake” value (S. aureus ATCC 25923)?
**A.** ≤ 3,360 s

**Q.** What about the “time within which ≥90% uptake” value (S. aureus RN4220) of the same compound?
**A.** ≤ 2,760 s

**Q.** What about the “time within which delayed leakage of PI occurred” value (three S. aureus strains) of the same compound?
**A.** 30 to 45 min
